Patent US9289444B2, “Composition for promoting hematogenesis containing quercetin 3-O-β-(2″-galloyl)-rhamnopyranoside as active ingredient” (Chungbuk National University Industry Academic Cooperation …, priority 2011, dated 2016)

Experiments:
[1] = tested on: bone marrow stromal cells; test: Real-time RT-PCR of hematopoietic cytokine mRNA; assay type: cell-based, mouse
Description: Bone marrow mononuclear cells (BMNCs) were isolated from femurs and tibias of 8 to 12-week-old male C57BL/6 mice by a previously described protocol [Kroeger K, Collins M, Ugozzoli (2009) The preparation of primary hematopoietic cell cultures from murine bone marrow for electroporation. J. Vis. Exp. 23: pii:1026. doi:10.3791/1026] and were separated from dead cells and red blood cells (RBCs) by Histopaque ([…]) (Sigma-Aldrich Chemical, St. Louis, Mo., USA) density gradient centrifugation. Thereafter, the cells were cultured in Iscove's modified Dulbecco's media (IMDM) with 15% heat inactivated fetal bovine serum (FBS), 1% bovine serum albumin (BSA), 100 units/ml penicillin and 100 μg/ml streptomycin at 37° C. in 5% CO2 humidified air. The separated blood was cultured as described previously [Oswald J, et al. (2004). Mesenchymal stem cells can be differentiated into endothelial cells in vitro. Stem Cells, 22: 377-384.] to obtain bone marrow stromal cells in α-minimum essential medium (MEM) with 20% heat inactivated FBS, 100 units/ml penicillin and 100 μg/ml streptomycin at 37° C. in 5% CO2 humidified air.
To confirm whether QGR regulates the expression of hematopoietic cytokines in bone marrow stromal cells, real-time RT-PCR was performed. Bone marrow stromal cells (3×10^5 cells/plate) were incubated with either mouse rIL-3 (100 units/ml) plus rSCF (5 units/ml) plus rEpo (3 units/ml) or QGR (50, 100 or 200 μM/ml) in 60 mm-diameter cell culture plates. The cells were harvested after 4 hr of incubation and washed with PBS and total RNA were extracted using RNA extraction kit (Applied Biosystems, Carlsbad, Calif., USA). First strand synthesis of cDNA was carried out with 1 μg of total RNA using cDNA synthesis kit (Applied Biosystems, Foster City, Calif., USA). Real-time PCR using TaqMan probe PCR master mix kit (Applied Biosystems) was performed according to the manufacturer's instruction using a model 7500 Real-Time PCR System (Applied Biosystems). GAPDH mRNA was utilized as an internal standard to normalize target transcript expression. The relative ratios of SCF, GM-CSF, or Epo mRNA to GAPDH mRNA which can be used to quantify precisely the levels of each mRNA expression, were calculated with the standard curves.

[2] = tested on: bone marrow failure mouse induced by busulphan (BU); test: Peripheral blood analysis in bone marrow failure model induced by busulphan (BU); assay type: in vivo, Balb/c mice
Description: 5-week-old female Balb/c mice were purchased from Orient Bio Inc. (Seongnam-si, Gyeonggi-do, Korea). All protocols of animal experiments were approved by Institutional Animal Care and Use Committee of Laboratory Animal Research Center, Chungbuk National University. The mice were fed by Teklad Global 18% protein rodent diet (Harlan, Iowa, USA) and had free access to drinking water. The mice were housed and bred under specific pathogen-free conditions, and were went through environmental acclimatization for one week before used in the animal experiments and were separated into three groups (n=70/group).
(§1) Bone marrow failure model induced by administering busulphan (BU) was designed according to the procedures previously described by Molyneux et al (Cell Biol Toxicol 27, 13-40, 2011) and the scheme is shown in FIG. 8. BU (Sigma chemicals, Poole, Dorset, UK) was dissolved in acetone to a final concentration of 18.8 mg/ml, diluted five-fold with distilled water, and was intraperitoneally administered three times for 5 days with the dose of 0.2 ml BU solution per mouse. Equal amount of five-fold diluted acetone solution without BU was administered to vehicle control group. QGR was dissolved in dimethylsulfoxide and diluted with distilled water to a final concentration of 1.25%. Mice were orally administered every two days with QGR (0.25 mg/mouse) for 63 days. Seven or eight mice were sacrificed on days of 1, 5, 10, 16, 25, 40, 49, and 63 after BU administration and were investigated to confirm the effect of QGR to recover bone marrow failure.
In order to evaluate the activity of QGR to recover anemia animal model induced by BU administration, peripheral blood was collected during an autopsy and were investigated. The collected peripheral blood was stored in the bottle containing EDTA to prevent a blood clotting, and the numbers of erythrocytes, leukocytes, and platelets, hematocrit (HCT) level, mean corpuscular volume (MCV), and mean corpuscular hemoglobin (MCH) were measured.

[3] = tested on: bone marrow failure mouse induced by busulphan (BU); test: Semisolid colonogenic assay for BFU-E in BU bone marrow failure model; assay type: in vivo, Balb/c mice; conditions: from 10 days to 63 days after QGR administration, vs positive control group
Protocol: as §1
In order to investigate whether QGR has an activity to promote the differentiation from hematopoietic stem cells to BFU-E namely an erythroid progenitor in the damaged bone marrow induced by BU administration, the semisolid colonogenic assay was carried out. […] 14 days later, the number of BFU-E colony was counted.

[4] = tested on: bone marrow failure mouse induced by busulphan (BU); test: Colony-forming unit-fibroblast (CFU-F) measurement from MSPCs in BU bone marrow failure model; assay type: in vivo, Balb/c mice; conditions: decreased from day 10 in positive control group; p<0.05
Protocol: as §1, with “Seven or eight mice were sacrificed on days of 1, 5, 10, 16, 25, 40, 49, and 63 after BU administration and were investigated to confirm the effect of QGR to recover bone marrow failure.” left out
CFU-F, a progenitor cell colony differentiated from MSPCs is in the stage prior to being finally matured into mesenchymal cells such as osteoblast, vascular endothelial cells acting as hematopoietic stem cell niche. In order to investigate the effect of QGR on the formation and differentiation of mesenchymal stem cells, MSPCs were isolated and the number of CFU-F colonies of the respective groups was measured and compared to each other. […] All visible colonies were counted.

LPS-induced Balb/c mice = conditions: cited from earlier work
[5] = 100 and 200 μM, vs rIL-3+rSCF+rEpo
[6] = QGR 0.25 mg/mouse orally after BU

Q: What does the source list for `CC1OC(Oc2c(-c3ccc(O)c(O)c3)oc3cc(O)cc(O)c3c2=O)C(OC(=O)c2cc(O)c(O)c(O)c2)C(O)C1O` (stereo not drawn) [QGR, quercetin 3-O-β-(2″-galloyl)-rhamnopyranoside]?
A: mRNA expression levels of SCF, GM-CSF and Epo ([1]; 50, 100 or 200 μM/ml, 4 hrs, dose-dependent): increased; Epo mRNA compared to the positive control [1, 5]: significantly increased; GM-CSF mRNA compared to the positive control [1, 5]: significantly increased; SCF mRNA compared to the positive control ([1]; all concentrations, vs rIL-3+rSCF+rEpo): significantly increased; mean corpuscular volume (MCV) ([2]; BU group vs BU+QGR group): BU administration group are significantly lower than those of BU+QGR administration group; leukocyte numbers vs normal control group [2, 6]: slightly lower; recovery effect of leukocyte level, onset [2, 6]: ≥ 10 days; recovery effect on erythrocyte level, onset [2, 6]: ≥ 5 days; recovery of reduced platelet numbers, onset [2, 6]: ≥ 16 days; erythrocyte level vs normal control group ([2]; QGR 0.25 mg/mouse orally every two days after BU): slightly lower; erythrocyte level vs positive control group (BU + vehicle) ([2]; QGR 0.25 mg/mouse orally every two days, days 5, 10, 16, 25, 49, 63): significantly higher; leukocyte numbers vs positive control group (BU + vehicle) ([2]; day 10 up to day 63): higher level; hemoglobin (HGB) level ([2]; pattern similar to erythrocytes): recovered the anemia; platelet numbers ([2]; vs positive control group (BU + vehicle), significant differences continuously): steeply recovered; number of BFU-E [3]: increased significantly and consistently; number of CFU-F [4]: recovered significantly; nitric oxide production (LPS-induced Balb/c mice): inhibiting
